Test results as given in patent publication US20130217678A1, “PHARMACEUTICAL AGENT COMPRISING QUINOLONE COMPOUND” (OTSUKA PHARMACEUTICAL CO., LTD., priority 2008, published 2013).

Columns and labels:
[1] = system: human neuroblastoma cell lines SH-SY5Y treated with 1-methyl-4-phenylpyridinium (MPP+); assay: Improvement of mitochondrial function (Alamar Blue mitochondrial oxidation reduction activity) in MPP+-treated SH-SY5Y cells; format: cell-based; conditions: 1.5 mM MPP+, relative to cells in DMSO alone = 100%, read-out: Fluorescence Intensity (%); for activity at 0.01 µg/mL: compound 0.01 μg/ml; for activity at 0.03 µg/mL: compound 0.03 μg/ml; for activity at 0.1 µg/mL: compound 0.1 μg/ml; for activity at 0.3 µg/mL: compound 0.3 μg/ml; for activity at 1 µg/mL: compound 1 μg/ml
Description: In human neuroblastoma cell lines SH-SY5Y in which mitochondrial function was damaged by MPP^+ treatment (Bollimuntha S. et al., J Biol Chem, 280, 2132-2140 (2005) and Shang T. et al., J Biol Chem, 280, 34644-34653 (2005)), the improvement of mitochondrial function was evaluated on the basis of the measurement value for mitochondrial oxidation reduction activity using Alamar Blue fluorescent dye after the compound addition (Nakai M. et al, Exp Neurol, 179, 103-110 (2003)).
The human neuroblastoma cell lines SH-SY5Y were cultured in Dulbecco's Modified Eagle's Medium containing 10% fetal bovine serum (DMEM containing 50 units/ml penicillin and 50 μg/ml streptomycin as antibiotics) at 37° C. in the presence of 5% carbon dioxide. Cells were scattered on a poly-D-lysine-coated 96-well black plate at a concentration of 3−6×10^4 cells/cm^2 (medium amount: 100 μl/well) and cultured in the medium for two days. Further, the medium was changed to DMEM containing a 1% N2 supplement (N2-DMEM) or to a medium (100 μl/well) in which 1.5 mM MPP^+ was dissolved. The cells were cultured therein for 39 to 48 hours, and then subjected to a mitochondrial oxidation reduction activity measurement system. A sample compound that had been previously dissolved in dimethyl sulfoxide (DMSO) was diluted with N2-DMEM and added in a volume of 10 μl/well 24 hours before the activity measurement (final compound concentration: 0.01 to 1 μg/ml).
After removal of the medium by suction, a balanced salt solution containing 10% Alamar Blue (154 mM sodium chloride, 5.6 mM potassium chloride, 2.3 mM calcium chloride, 1.0 mM magnesium chloride, 3.6 mM sodium hydrogen carbonate, 5 mM glucose, 5 mM HEPES, pH 7.2) was added in a volume of 100 μl/well, and reacted in an incubator at 37° C. for 1 hour. The fluorescent intensity was detected using a fluorescence detector (a product of Hamamatsu Photonics K.K., excitation wavelength: 530 nm, measurement wavelength: 580 nm) to thereby measure the mitochondrial oxidation reduction activity.
The fluorescent intensity of the well of the cells cultured in a medium containing MPP^+ and each of the sample compounds was relatively evaluated based on the 100% fluorescent intensity of the well of the cells cultured in a medium containing DMSO alone (final concentration: 0.1%).

Row | melting point | SMILES | further results
1 | 145 to 148 °C | CCCOc1ccc(OC)c2c(=O)c(-c3cccc(OC)c3OC)c[nH]c12 [Example 42, 3-(2,3-Dimethoxyphenyl)-5-methoxy-8-propoxy-1H-quinolin-4-one] | –
2 | 106 to 109 °C | CCCOc1ccc(C)c2c(=O)c(-c3cn(C)c4ccccc34)c[nH]c12 [Example 62, 5-Methyl-3-(1-methyl-1H-indol-3-yl)-8-propoxy-1H-quinolin-4-one] | –
3 | 179 to 180 °C | CCCOc1ccc(OC)c2c(=O)c(-c3cc(OC)ccc3OC)c[nH]c12 [Example 43, 3-(2,5-Dimethoxyphenyl)-5-methoxy-8-propoxy-1H-quinolin-4-one] | –
4 | 212 to 214 °C | COc1ccc(-c2c[nH]c3c(OCC4CC4)ccc(OC)c3c2=O)cc1 [Example 88, 8-Cyclopropylmethoxy-5-methoxy-3-(4-methoxyphenyl)-1H-quinolin-4-one] | –
5 | 250 °C | CCCOc1cccc2c(=O)c(-c3c(F)cccc3Cl)c[nH]c12 [Example 30, 3-(2-Chloro-6-fluorophenyl)-8-propoxy-1H-quinolin-4-one] | –
6 | 255 to 256 °C | CCCOc1cccc2c(=O)c(-c3cccc4ccccc34)c[nH]c12 | –
7 | 200 to 203 °C | CCCOc1cccc2c(=O)c(-c3ccccc3Br)c[nH]c12 [Example 54, 3-(2-Bromophenyl)-8-propoxy-1H-quinolin-4-one] | –
8 | 260 to 263 °C | COc1ccc(-c2c[nH]c3c(N4CCOCC4)ccc(C)c3c2=O)cc1 [Example 73, 3-(4-Methoxyphenyl)-5-methyl-8-morpholin-4-yl-1H-quinolin-4-one] | –
9 | 182 to 183 °C | COc1ccc(-c2c[nH]c3c(OCC4CC4)ccc(C)c3c2=O)cc1 [Example 69, 8-Cyclopropylmethoxy-3-(4-methoxyphenyl)-5-methyl-1H-quinolin-4-one] | –
10 | 213 to 214 °C | COc1ccc(-c2c[nH]c3c(OC(C)C)ccc(OC)c3c2=O)cc1 [Example 46, 8-Isopropoxy-5-methoxy-3-(4-methoxyphenyl)-1H-quinolin-4-one] | –
11 | 170 to 171 °C | CCCOc1ccc(C)c2c(=O)c(-c3cccc(OC)c3OC)c[nH]c12 [Example 53, 3-(2,3-Dimethoxyphenyl)-5-methyl-8-propoxy-1H-quinolin-4-one] | –
12 | 160 °C | CCCOc1cccc2c(=O)c(-c3c(F)c(F)c(F)c(F)c3F)c[nH]c12 [Example 33, 3-Pentafluorophenyl-8-propoxy-1H-quinolin-4-one] | –
13 | 120 to 121 °C | CCOc1cc(NC(=O)c2ccccc2)c(OCC)c2c(=O)c(-c3ccc(OC)cc3)c[nH]c12 [Example 35, N-[5,8-Diethoxy-3-(4-methoxyphenyl)-4-oxo-1,4-dihydroquinolin-6-yl]-benzamide] | –
14 | 182 to 183 °C | CCOc1ccc(OCC)c2c(=O)c(-c3ccc(OC)cc3)c[nH]c12 [Example 25, 5,8-Diethoxy-3-(4-methoxyphenyl)-1H-quinolin-4-one] | –
15 | 159 to 161 °C | CCCN(C)c1ccc(C)c2c(=O)c(-c3ccc(OC)cc3)c[nH]c12 [Example 72, 3-(4-Methoxyphenyl)-5-methyl-8-(methyl-propyl-amino)-1H-quinolin-4-one] | –
16 | 186 to 187 °C | CCCOc1ccc(-c2ccccc2)c2c(=O)c(-c3ccc(OC)cc3)c[nH]c12 [Example 22, 3-(4-Methoxyphenyl)-5-phenyl-8-propoxy-1H-quinolin-4-one] | –
17 | 156 to 158 °C | CCCOc1ccc(C)c2[nH]cc(-c3ccc(OC)cc3)c(=O)c12 [Example 80, 3-(4-Methoxyphenyl)-8-methyl-5-propoxy-1H-quinolin-4-one] | –
18 | 189 °C | CCCOc1cccc2c(=O)c(-c3ccc(Cl)cc3Cl)c[nH]c12 [Example 27, 3-(2,4-Dichlorophenyl)-8-propoxy-1H-quinolin-4-one] | –

Row | melting point | SMILES | further results
19 | 237 to 239 °C | COc1ccc(-c2c[nH]c3c(OC4CCCC4)ccc(C)c3c2=O)cc1 [Example 91, 8-Cyclopentyloxy-3-(4-methoxyphenyl)-5-methyl-1H-quinolin-4-one] | –
20 | 191 to 192 °C | CCCOc1ccc(C)c2c(=O)c(-c3ccc(OC)cc3OCC)c[nH]c12 [Example 78, 3-(2-Ethoxy-4-methoxyphenyl)-5-methyl-8-propoxy-1H-quinolin-4-one] | –
21 | 90 to 93 °C | COCCN(C)c1ccc(C)c2c(=O)c(-c3ccc(OC)cc3)c[nH]c12.Cl | –
22 | 239 to 241 °C | CCCOc1ccc(OC)c2c(=O)c(-c3ccccc3OC)c[nH]c12 [Example 40, 5-Methoxy-3-(2-methoxyphenyl)-8-propoxy-1H-quinolin-4-one] | –
23 | 81 to 84 °C | CCCOc1cccc2c(=O)c(-c3cccc(-c4ccc(OC)cc4OC)c3)c[nH]c12 [Example 56, 3-(2′,4′-Dimethoxybiphenyl-3-yl)-8-propoxy-1H-quinolin-4-one] | –
24 | 230 °C | CCCOc1cccc2c(=O)c(-c3ccc(F)cc3Cl)c[nH]c12 [Example 29, 3-(2-Chloro-4-fluorophenyl)-8-propoxy-1H-quinolin-4-one] | –
25 | 104 to 105 °C | CCCOc1ccc(C)c2c(=O)c(-c3cccs3)c[nH]c12 [Example 61, 5-Methyl-8-propoxy-3-thiophen-2-yl-1H-quinolin-4-one] | –
26 | 160 to 161 °C | CCCOc1c(F)ccc2c(=O)c(-c3ccc(OC)cc3)c[nH]c12 [Example 48, 7-Fluoro-3-(4-methoxyphenyl)-8-propoxy-1H-quinolin-4-one] | –
27 | 90 to 92 °C | CCCOc1ccc(C)c2c(=O)c(-c3sc4ccccc4c3C)c[nH]c12 [Example 66, 5-Methyl-3-(3-methylbenzo[b]thiophen-2-yl)-8-propoxy-1H-quinolin-4-one] | –
28 | 163 to 165 °C | O=c1c(-c2ccc(Cl)cc2Cl)c[nH]c2c(OCC3CC3)ccc(O)c12 [Example 107, 8-Cyclopropylmethoxy-3-(2,4-dichlorophenyl)-5-hydroxy-1H-quinolin-4-one] | –
29 | 100 to 101 °C | CCCOc1ccc(C)c2c(=O)c(-c3ccc(OC)cc3)cn(CC3CC3)c12 [Example 92, 1-Cyclopropylmethyl-3-(4-methoxyphenyl)-5-methyl-8-propoxy-1H-quinolin-4-one] | –
30 | 253 to 255 °C | CCCOc1cccc2c(=O)c(-c3cccc(OC)c3OC)c[nH]c12 [Example 41, 3-(2,3-Dimethoxyphenyl)-8-propoxy-1H-quinolin-4-one] | –
31 | 214 to 215 °C | COc1ccc(-c2c[nH]c3c(N4CCN(C)CC4)ccc(C)c3c2=O)cc1 [Example 77, 3-(4-Methoxyphenyl)-5-methyl-8-(4-methylpiperazin-1-yl)-1H-quinolin-4-one] | –
32 | 265 to 267 °C | CCCOc1ccc(C)c2c(=O)c(-c3ccc(O)cc3)c[nH]c12 [Example 74, 3-(4-Hydroxyphenyl)-5-methyl-8-propoxy-1H-quinolin-4-one] | –
33 | 201 to 202 °C | CCCOc1ccc(C)c2c(=O)c(-c3ccccc3C)c[nH]c12 [Example 50, 5-Methyl-8-propoxy-3-o-tolyl-1H-quinolin-4-one] | –
34 | 193 °C | CCCOc1cccc2c(=O)c(-c3c(Cl)cccc3Cl)c[nH]c12 [Example 28, 3-(2,6-Dichlorophenyl)-8-propoxy-1H-quinolin-4-one] | –
35 | 175 °C | CCCOc1cccc2c(=O)c(-c3cc(OC)ccc3OC)c[nH]c12 [Example 31, 3-(2,5-Dimethoxyphenyl)-8-propoxy-1H-quinolin-4-one] | –

Row | SMILES | melting point | further results
36 | CCCOc1cccc2c(=O)c(-c3ccc(OC)cc3)c[nH]c12 [Example 3, 3-(4-Methoxyphenyl)-8-propoxy-1H-quinolin-4-one] | 231 to 233 °C | activity at 0.01 µg/mL [1]: 68%; activity at 0.03 µg/mL [1]: 77%; activity at 0.1 µg/mL [1]: 77%; activity at 0.3 µg/mL [1]: 83%; activity at 1 µg/mL [1]: 67%
37 | COc1ccc(-c2c[nH]c3c(OCC4CC4)cc(C)c(C)c3c2=O)cc1 [Example 83, 8-Cyclopropylmethoxy-3-(4-methoxyphenyl)-5,6-dimethyl-1H-quinolin-4-one] | 99 to 101 °C | activity at 0.01 µg/mL [1]: 65%; activity at 0.03 µg/mL [1]: 70%; activity at 0.1 µg/mL [1]: 67%; activity at 0.3 µg/mL [1]: 62%; activity at 1 µg/mL [1]: 29%
